Data from PMC11885506, “Evaluation of a non-animal toolbox informed by adverse outcome pathways for human inhalation safety” (Frontiers in Toxicology, 2025).
Entries after “also recorded” stand apart in the source; their conditions may differ. Read-outs that look alike come from different tables or passages of the source.

Experiments:
MucilAir™-HF tissues [1] = test: Cilia beating frequency (CBF) analysis, MucilAir-HF model
Protocol: The MucilAir™-HF system (EP11MD) and ready-to-use chemically-defined, serum-free culture medium (EP04AM) were obtained from Epithelix Sàrl (Geneva, Switzerland). Tissues were handled as recommended by manufacturer’s instruction. […] After differentiation for 42 up to 81 days at the air-liquid interface (ALI) under standard culture conditions (37°C ± 1°C in a humidified atmosphere of 5% ± 1% CO2 in air), tissues were washed 3 days before first exposure and each insert was inspected for beating cilia and mucus production. This washing step (one or twice with PBS) were performed to remove accumulated mucus and cell debris to minimize the risk of interference with the toxicity tests. Over 12-day experimental period, washing steps as well as media changes was performed every 2-3 days.
For toxicity testing performed over a 12-day experimental period, tissues were daily exposed to 3 different concentrations of each test material for 30 min or 6 h (for detailed information on each material see Table 1). […] Tissues were exposed by test materials via nebulization, liquid apical application, or liquid basal application. These differences in the exposure type were due to solubility of the test material, route of exposure (inhaled or systemic), or comparison with previous publications. […]

MucilAir™-HF tissues [2] = test: Mucin-5AC (Muc5AC) immunohistochemistry, goblet cells, MucilAir-HF model; format: cell-based, human; conditions: for % of Muc5AC area: average ± standard deviation
Protocol: (§1) Tissues were handled as recommended by manufacturer’s instruction.
The presence of goblet cells was assessed through immunohistochemistry analysis for mucin-5AC protein (Muc5AC) detection. IL-13 and cytomix were used as positive controls (see item 2.5.2 for additional details). On last day of experiment (day 12), cultures (n = 3 tissues/group) were rinsed in PBS and fixed by immersion in 4% formaldehyde for 20 min. Fixed tissues were embedded into paraffin, sectioned, and processed for staining on paraffin sections. The immunostaining of the sections was performed with the Benchmark automated platform (Ventana-Roche, Hoffmann-La Roche Ltd, Basel, Switzerland) and the Autostainer Link 48 (Agilent, Santa Clara, CA. United States) with the detection kit Ultraview DAB (DAB chromogeny, Hoffmann-La Roche Ltd). Sections were pre-treated using heat mediated antigen retrieval with sodium citrate buffer, pH 6, for 20 min. The section was then incubated with recombinant anti-mucin 5AC antibody (ab3649, Abcam) for 1 h at room temperature, followed by biotinylated secondary antibody (Dako) and HRP detection (HRP conjugated ABC system, Vector Laboratories), according to manufacturer’s instruction. The section was then counterstained with hematoxylin (Sigma-Aldrich) and mounted with DPX, a synthetic non-aqueous mounting medium for microscopy. Digital images of the slides were then acquired, and quantitative image analysis performed using Image Pro Plus 6.2 (Media Cybernetics) to quantify the goblet cells on a section. The whole images of stained sections were scanned, and an average 15 images/section were analysed. The results are the ratio between the mucin 5AC stained area and the total surface area of the epithelium on the section.

[3] = tested on: primary human nasal epithelial cells; set-up: method as in Uchenna Agu et al., 1999; conditions: ref Uchenna Agu et al., 1999, cited from earlier work
NCI-H292 cells = conditions: 0.03 µM for 4 h; ref Deshmukh et al., 2005; cited from earlier work
[4] = tested on: NCI-292 and normal human bronchial epithelial cells; set-up: method as in Deshmukh et al., 2005; conditions: ref Deshmukh et al., 2005; cited from earlier work
[5] = tested on: human bronchial epithelial cells (BEAS-2B); set-up: method as in Sthijns et al., 2014; conditions: 3-10 µM, 30-min exposure; ref Sthijns et al., 2014; cited from earlier work
EpiAlveolar™ tissues = test: Histology and immunohistochemistry, EpiAlveolar model, Laboratory 2; conditions: Laboratory 2, 12-day period
Protocol: To evaluate the quality of EpiAlveolar™ tissues over the 12-day experimental period, histological and immunohistochemistry assessments for detection of pan-cytokeratin, vimentin, aquaporin 5, pro-surfactant C, CD68, caspase-3, and/or αSMA were performed by Laboratories 1 and 2.
Tissues were kept in 10% phosphate buffered formalin at 4°C for up to 48 h. Samples were then fixed in 70% ethanol and two strips of membrane were trimmed from each sample, processed, and paraffin-embedded to be cut at 5 µm thick sections and mounted to glass slides. The slides were then dewaxed in xylene, hydrated using graded industrial methylated spirit (70-100%) and stained with H&E for light microscope analysis.
For immunohistochemistry analysis, tissue sections-containing microscope slides were obtained and processed using a Discovery Ultra Staining System (Roche), according to manufacturer’s instructions, except for anti-CD68 staining that was manually performed. The slides were incubated at 60°C for 8 min and then deparaffinized at 69°C for 24 min. After that, slides were incubated with inhibitor CM or peroxidase blocking solution (for anti-CD68 staining) for 8 min at room temperature. The slides were then incubated at room temperature with the following primary monoclonal antibodies, following manufacturer’s instructions: anti-α smooth muscle actin (αSMA) at 1:500 (Leica Microsystems Ltd), anti-CD68 at 1:3000 for macrophages (11192-T24, Sino Biological), anti-pro-surfactant C protein at 1:1000 (AB3786, Sigma-Aldrich), anti-caspase-3 at 1:10000 (AB4051, Abcam), anti-aquaporin 5 (31661, Invitrogen), anti-pan-cytokeratin for epithelial cells (760-2595, Roche), and anti-vimentin for mesenchymal cells (790-2917, Roche). […]
A board-certified pathologist evaluated the changes (epithelial thinning, separation/detachment areas, necrosis, collagen, and presence of apoptotic cells, myofibroblasts, and type II pneumocytes) using a semi-quantitative scoring system (Table 2).

MucilAir™-HF tissues [6] = test: Cytokine and chemokine measurements (Luminex), MucilAir-HF model; format: cell-based, human; conditions: MucilAir-HF
Protocol: as §1
Basolateral medium samples of the tissue cultures were collected and stored at −80°C until analysis. The following cytokines/chemokines were quantified using customized Human Luminex® Discovery Assay kits (R&D Systems): chemokine (C-C motif) ligand (CCL) 2, CCL7, CCL26, C-X-C motif chemokine ligand (CXCL) 10, CXCL11, intercellular adhesion molecule-1 (ICAM-1), IL-1α, IL-6, IL-8, matrix metalloproteinase (MMP)-1, MMP-2, MMP-3, MMP-7, MMP-9, osteopontin, interferon (IFN)-γ, IL-1 receptor antagonist (IL-1Ra), urokinase-type plasminogen activator receptor (uPAR), tumour necrosis factor (TNF)-α, urokinase (uPA), serpin E1, tissue inhibitor of metalloproteinase 1 (TIMP-1), and TGF-β1. Samples were measured in technical triplicates according to the manufacturer’s recommendation using a Luminex Bio-Plex® 200 RUO System ([…]).

[7] = tested on: cultured alveolar macrophages and epithelial cells; set-up: method as in JOUNEAU et al., 2011; conditions: 10 µg/mL for 48h, bacteria strain not specified; ref JOUNEAU et al., 2011; cited from earlier work
[8] = tested on: primary human bronchial epithelial cells; set-up: method as in Wu et al., 2010; conditions: 1 μg/mL for 24h, bacteria strain not specified; ref Wu et al., 2010; cited from earlier work
[9] = tested on: EpiAirway-100 human upper respiratory tract epithelium model; conditions: 25-125 mM for 24h; ref Balharry et al., 2008; cited from earlier work
[10] = tested on: A549 human lung adenocarcinoma cell line; conditions: 0.1-5 µM for 3h; ref Guo et al., 2012; cited from earlier work
[11] = tested on: HBE16 airway epithelial cells; conditions: 20 μM for 12h; ref Li et al., 2010; cited from earlier work
[12] = tested on: cystic fibrosis phenotype cells; set-up: method as in Perez et al., 2007; conditions: 20 µM for 3-5 days; ref Perez et al., 2007; cited from earlier work
[13] = tested on: airway epithelial cell lines; set-up: method as in Nilsson et al., 2010; conditions: 40 µM for 60 min, corrected and normal cell lines; ref Nilsson et al., 2010; cited from earlier work
[14] = tested on: monocyte-derived macrophages (MDMs); conditions: 20 µM; ref Zeng et al., 2021; cited from earlier work
[15] = tested on: RLE-6TN rat lung epithelial cells; conditions: 0.5 µM; ref Jiao et al., 2017; cited from earlier work
[16] = 30 min/day exposure, day 12, High 1 concentration (third of the tested concentrations)
[17] = 30 min/day exposure, day 12, Low concentration (first of the tested concentrations)
[18] = 30 min/day exposure, day 12, Medium concentration (second of the tested concentrations)
[19] = 6 h/day exposure, day 12, single tested concentration

Compound	% of Muc5AC area (MucilAir™-HF tissues [2]; [16])	% of Muc5AC area (MucilAir™-HF tissues [2]; [17])	% of Muc5AC area (MucilAir™-HF tissues [2]; [18])	% of Muc5AC area (MucilAir™-HF tissues [2]; [19])	further results
Cc1cc(O)ccc1Cl [Chlorocresol, 4-Chloro-3-methylphenol]	6.95 ± 0.30%	14.47 ± 0.87%	8.85 ± 1.77%	–	Tissue functionality (CBF, MCC, mucin secretion) change (in words) (MucilAir™-HF tissues [1]): not able to induce changes in tissue functionality (e.g. reduced CBF); CBF ([3]; 0.005% w/ v for 1-20 min): reversible cilio-inhibitory effects by significantly decreasing CBF; CBF ([3]; 0.1% w/v): instantaneous and irreversible ciliostasis
C=CC=O [Acrolein]	5.21 ± 2.16%	3.66 ± 1.21%	7.40 ± 1.45%	–	MUC5AC mRNA expression (NCI-H292 cells): MUC5AC mRNA expression increase; MMP9 mRNA expression [4]: increase of MMP9 mRNA expression; Cytotoxicity (LDH leakage) [5]: concentration-dependent cytotoxicity through LDH leakage increase
Lipopolysaccharide from Pseudomonas aeruginosa 10 [LPS]	4.28 ± 0.76%	2.87 ± 0.77%	4.30 ± 0.90%	1.58 ± 0.40%	Histological changes compared to vehicle and control groups (in words) (EpiAlveolar™ tissues): changes were not observed; Cytokines/chemokines modulated (in words) (MucilAir™-HF tissues [6]; 30 min/day exposure): did not promote modulation of the different cytokines/chemokines; Cytokines/chemokines modulated (in words) (MucilAir™-HF tissues [6]; 6 h/day exposure): increased levels of proteins involved in the inflammatory response (e.g., IL-6, IL-8, and TNF-α) and degradation of extracellular matrix/fibrosis (e.g., MMP-3 and uPAR); MMP-9 supernatant levels and mRNA transcripts [7]: significant increase in MMP-9 supernatant levels and mRNA transcripts; IL-6 and IL-8 protein and mRNA transcripts levels [8]: significant increase of IL-6 and IL-8 protein and mRNA transcripts levels
CN1CCC[C@H]1c1cccnc1 [Nicotine]	5.94 ± 1.90%	0.89 ± 0.62%	3.91 ±0.79%	–	TEER values (integrity of the epithelial membrane) [9]: biphasic response with a large and significant increase of TEER values at low concentrations followed by a steady decrease at higher concentrations; Cytotoxicity (LDH release) [10]: did not trigger cytotoxicity; TNF-α, IL-8, IL-6 and MUC5AC supernatant protein and mRNA levels [11]: did not trigger changes in TNF-α, IL-8, IL-6 and MUC5AC supernatant protein and mRNA levels
O=C(O)c1ccc(/C=C2\SC(=S)N(c3cccc(C(F)(F)F)c3)C2=O)cc1 [CFTRinh-172]	6.93 ± 0.51%	7.15 ± 1.06%	11.01 ± 0.81%	–	GM-CSF, IL-6 and/or IL-8 secretion levels [12]: no changes in granulocyte/macrophage colony-stimulating factor, IL-6 and/or IL-8 secretion levels; TEER values [13]: time-dependent increase in TEER values; Changes in Muc5AC protein expression (in words) (MucilAir™-HF tissues [2]): not able to promote any changes; also recorded: did not induce expected increase in mucin secretion or Muc5AC protein expression
C[S+]([O-])CCCCN=C=S (stereo not drawn) [Sulforaphane, R,S-Sulforaphane]	5.04 ± 0.71%	3.74 ± 0.71%	9.38 ± 0.80%	2.55 ± 0.62%	Anti-inflammatory activity [14]: anti-inflammatory activity by suppressing the expression of Toll-like receptors (TLR2 and TLR4); Protection from cigarette smoke extract-induced oxidative damage [15]: protect from cigarette smoke extract-induced oxidative damage
